What was measured:
[1] = Reaction of hydrolyzed silanes with treatment enhancers, solution appearance; format: physicochemical
E. Coli = test: Dynamic Shake Flask Test, % E. Coli reduction; format: cell-based; conditions: Example 4, AA 1.25 mg/inch^2, vs untreated control substrates
Protocol: (§1) The BPB test is a standardized test known as the Bromphenol Blue Extraction Method having a Dow Corning Corporate test number 0824, except that the test was modified in the following manner. The chlorinated solvent has been eliminated and the wavelength is 595 nm. Further, the Dow Corning® Q25211 has been substituted for the Triton RTM.X100 wetting agent of the test. What is measured is the diminution of the BPB absorbance at 595 nm relative to the BPB standard solution and it is reported in percent extraction. Antimicrobial efficacy was determined using the Dow Corning Test Method 0923 Dynamic Shake Flask Test (ASTM E-2149-01) unless otherwise stated.
Studies were carried out to determine if this invention was applicable to various substrates in the building products area, such as Oriented Strand Board (OSB), vinyl siding, polymer wood composite decking and dimensional lumber. The application process was: samples were cut to 2 inches by 2 inches and weighed prior to application. A hand pump mist sprayer was used to treat the substrate. The applications of the silicate/siliconate and (AA) were kept to a minimum of less than 3 seconds application timne. Treated samples were next rinsed with copious cold water to remove any excess treatment material. There was no heating or other curing or drying of the samples.

test microbes = test: Dow Corning Test Method 0923 Dynamic Shake Flask Test (ASTM E-2149-01), Table I; format: cell-based; conditions: shingle, vs untreated controls
Protocol: as §1
Application technologies were compared for a shingle substrate at constant add levels and room temperature conditions. Samples were prepared as follows and compared. The Samples included: antimicrobial agent (AA) by itself (Sample 1) and the (AA) in 0.1M Na2C2O4 (Sample 2) with a polyoxyethylene nonylphenol (the surfactant). Sample 1 treated with Methyl Siliconate is Sample 3, Sample 1 treated with sodium silicate is Sample 4 and sample 1 treated with Everwood is Sample 5. The Samples were handled as in example 1 and tested.

Compound: CCO[Si](CC(C)C)(OCC)OCC [Sample Z-6043, i-butyltriethoxysilane]
- Appearance (at Time Min.) [1]: clear
- Appearance (at Time hours) [1]: clear

Compound: potassium methyl siliconate [DC-777]
- appearance on standing ([1]; treatment enhancer alone, 1.5% actives level, after 4 days of standing): white precipitate

Compound: CCCCCCCCCCCCCCCCCC[N+](C)(C)CCC[Si](OC)(OC)OC.[Cl-] [Sample 1, N,N-dimethyl-N-Octadecyl-3-(trimethoxysilyl)propanaminium chloride]
- OSB % Red. ext. (% E. Coli Reduction) (E. Coli; OSB): 31%
- decking % Red. ext. (% E. Coli Reduction) (E. Coli; decking): 0%
- shingle % Red. ext. (% E. Coli Reduction) (E. Coli; shingle): 11%
- siding % Red. ext. (% E. Coli Reduction) (E. Coli; siding): 0%
- wood % Red. ext. (% E. Coli Reduction) (E. Coli; wood): 21%
- % Reduction (test microbes; AA Actives 0.50%): 0%
- % Reduction (test microbes; AA Actives 1%): 0%
